Source: patent US9131716B2, “Use of neoflavonoids for flavor modification” (SYMRISE AG, priority 2011, dated 2015)
Marks after values point to notes of the source that are not given here.

Assays:
[1] = Reduction of bitterness of a naringin solution, panel of experts; format: in vivo; conditions: 100 ppm naringin
From the text: (§1) In order to quantify the reduction (i.e. the masking or decrease) of the impression of bitterness in a sample, the bitterness of a solution containing 500 ppm caffeine or 200 ppm theobromine or 100 ppm naringin or 250 ppm salicin was compared by a panel of experts in each case with a sample that contained 500 ppm caffeine or 200 ppm theobromine or 100 ppm naringin or 250 ppm salicin and additionally the amount stated in each case of a substance to be assessed (with respect to capacity for reducing bitterness) (classification: 1 [not bitter] through 10 [extremely bitter]). The evaluation, i.e. calculation of the reduction (in %) of the impression of bitterness, was based in each case on the mean values of the appraisals of the panel of experts.

[2] = Reduction of bitterness of a salicin solution, panel of experts; format: in vivo; conditions: 250 ppm salicin, 50 ppm test substance
From the text: as §1

[3] = Reduction of bitterness of a caffeine solution, panel of experts; format: in vivo; conditions: 500 ppm caffeine; for Impression of bitterness (1-10) b) with test substance: scale 1-10
From the text: as §1

[4] = Reduction of bitterness of a theobromine solution, panel of experts; format: in vivo; conditions: 300 ppm theobromine; for Impression of bitterness (1-10) b) with test substance: scale 1-10
[5] = Reduction of bitterness/astringency of an EGCG solution as a function of time, panel of experts; format: in vivo; conditions: 750 ppm EGCG + 125 ppm ascorbic acid, 50 ppm test substance
From the text: In order to quantify the reduction (i.e. the masking or decrease) of the impression of bitterness or astringency in a sample over a specified course of time, the bitterness, or astringency of a solution containing 750 ppm epigallocatechin gallate (EGCG) and 125 ppm ascorbic acid was compared by a panel of experts in each case with a sample that contained 750 ppm epigallocatechin gallate, 125 ppm ascorbic acid and additionally the amount stated in each case of a substance to be assessed (with respect to capacity for reducing bitterness), in this case a racemic mixture of compounds (7) and (8) (classification: 1 [not bitter] through 10 [extremely bitter]; or 1 [not astringent] through 10 [extremely astringent]). […] The samples were assessed by the members of the panel one after another after neutralization. The evaluation, i.e. calculation of the reduction (in %) of the impression of bitterness/astringency was based at each measurement time point in each case on the mean values of the appraisals of the panel of experts for the epigallocatechin gallate solution and the sample to be compared, containing epigallocatechin gallate and a substance to be assessed.

BGC823 cancer cell line = conditions: from CN 101906090; cited from earlier work
Caco-2 cells = conditions: from Chem. Pharm. Bull. 2010, 58, 242-246; cited from earlier work
[6] = 25 ppm test substance, scale 1-10

SMILES: O=C1CC(c2ccccc2O)c2c(O)cc(O)cc2O1 (racemic) [(1) + (2), 5,7-dihydroxy-4-(2-hydroxyphenyl)chroman-2-one]
- % reduction of the impression of bitterness ([1]; 5 ppm test substance): 31.7%
- Impression of bitterness (1-10) b) with test substance ([1]; 5 ppm test substance, scale 1 [not bitter] through 10 [extremely bitter]): 3.7 ± 2.6

SMILES: COc1cc(C2CC(=O)Oc3cc(O)cc(O)c32)ccc1O (racemic) [(5) + (6), 5,7-dihydroxy-4-(4-hydroxy-3-methoxyphenyl)chroman-2-one]
- % reduction of the impression of bitterness [2]: 11.1%
- Impression of bitterness (1-10) b) with test substance ([2]; scale 1-10): 5.9 ± 2.5
- % reduction of the impression of bitterness ([1]; 25 ppm test substance): 49.0%
- Impression of bitterness (1-10) b) with test substance [1, 6]: 3.1 ± 1.4
- % reduction of the impression of bitterness ([3]; 50 ppm test substance): 23.5%
- Impression of bitterness (1-10) b) with test substance ([3]; 50 ppm test substance): 3.0 ± 1.3
- % reduction of the impression of bitterness ([4]; 25 ppm test substance): 30.3%
- Impression of bitterness (1-10) b) with test substance ([4]; 25 ppm test substance): 3.1 ± 1.6

SMILES: O=C1CC(c2ccc(O)cc2)c2c(O)cc(O)cc2O1 (racemic) [(7) + (8), 5,7-dihydroxy-4-(4-hydroxyphenyl)chroman-2-one]
- % reduction of the impression of astringency ([5]; time 0 s): −1%
- % reduction of the impression of bitterness ([5]; time 0 s): −14%
- % reduction of the impression of astringency ([5]; time 10 s): −7%
- % reduction of the impression of bitterness ([5]; time 10 s): −22%*
- % reduction of the impression of astringency ([5]; time 30 s): −7%
- % reduction of the impression of bitterness ([5]; time 30 s): −25%*
- % reduction of the impression of astringency ([5]; time 50 s): −19%
- % reduction of the impression of bitterness ([5]; time 50 s): −35%*
- % reduction of the impression of astringency ([5]; time 70 s): −15%
- % reduction of the impression of bitterness ([5]; time 70 s): −29%
- % reduction of the impression of bitterness ([1]; 25 ppm test substance): 48.6%
- Impression of bitterness (1-10) b) with test substance [1, 6]: 2.9 ± 1.9
- % reduction of the impression of bitterness ([3]; 25 ppm test substance): 15.5%
- Impression of bitterness (1-10) b) with test substance ([3]; 25 ppm test substance): 3.4 ± 1.4
- % reduction of the impression of bitterness ([4]; 10 ppm test substance): 21.7%
- Impression of bitterness (1-10) b) with test substance ([4]; 10 ppm test substance): 3.6 ± 1.5

SMILES: O=C1CC(c2ccc(O)cc2)c2ccc(O)cc2O1 (racemic) [(17) + (18), 7-hydroxy-4-(4-hydroxyphenyl)chroman-2-one]
- % reduction of the impression of bitterness ([1]; 25 ppm test substance): 44.3%
- Impression of bitterness (1-10) b) with test substance [1, 6]: 3.0 ± 1.6

SMILES: COc1cc(C2CC(=O)Oc3cc(O)ccc32)ccc1O (racemic) [(23) + (24), 7-hydroxy-4-(4-hydroxy-3-methoxyphenyl)chroman-2-one]
- % reduction of the impression of bitterness ([4]; 25 ppm test substance): 22.4%
- Impression of bitterness (1-10) b) with test substance ([4]; 25 ppm test substance): 3.5 ± 1.6

SMILES: COc1ccc(C2CC(=O)Oc3cc(O)ccc32)cc1O (centres unmarked) [(39)]
- effectiveness against the BGC823 cancer cell line (BGC823 cancer cell line): effective

SMILES: COc1cc(C2CC(=O)Oc3cc(O)cc(OC)c32)cc(OC)c1OC (centres unmarked) [(40)]
- cytotoxicity against Caco-2 cells (Caco-2 cells): strong cytotoxicity
